The text below walks through data of patent publication US20120172390A1, “METHOD OF TREATING SLEEP DISORDERS USING THE COMBINATION OF EPLIVANSERIN AND ZOLPIDEM” (priority 2009, published 2012).

Data set [1] can be described thus: Adverse events and tolerability in healthy individuals. Here is the method:
Single center study employing a two-part, double-blind, randomized, placebo- and active-controlled, 4-way crossover design (FIG. 1). Eligibility criteria included certification of good health, 18-50 years of age, and written informed consent.
Part A (the first part of the study): participants were first administered either one evening dose of flurazepam 30 mg or matching placebo, and after a 21-day washout period, participants were administered the other treatment.
Part B: participants received either an evening dose of eplivanserin 5 mg or matching placebo for 21 days, followed by co-administration with a single dose of zolpidem-IR 10 mg.
After this phase of the study, participants were then administered the reverse treatment sequence.
Adverse events were recorded (Medical Dictionary for Regulatory Activities v9.1). Other measures included vital signs, standard clinical laboratory parameters (biochemistry, hematology, and urinalysis), and electrocardiograms.

Data set [2] can be described thus: Critical Flicker Fusion (CFF) test, next-day morning. It counts as in vivo, human.
Details of data set [3]: species or system human. To be noted: in vivo.
Data set [4] can be described thus: Immediate recall of Word list, next-day morning. Format: in vivo, human.
Data set [5] can be described thus: Delayed Recall of Word Lists, next-day morning. It counts as in vivo, human.
A short description of data set [6]: Compensatory Tracking Task (CTT), next-day morning. It counts as in vivo, human.
Data set [7] is described as follows: Bond-Lader Visual Analog Scale (VAS), next-day morning. It counts as in vivo, human.
The nature of data set [8]: Global analysis of the 7 primary psychomotor/cognitive endpoints (multivariate mixed effect model). It counts as in vivo, human.
Data set [9] is described as follows: Steady-state levels after repeated administration in the study. To be noted: after 20 days of repeated administration of eplivanserin 5 mg; also for its active metabolite. Format: in vivo, human. Here is the method: As a consequence, cognitive/psychomotor performance was assessed under steady state conditions.
The conditions of data set [10]: in vivo; cited from earlier work.
In a further data set the test system is GABA receptors. To be noted: unlike benzodiazepines; cited from earlier work.
[11] abbreviates: eplivanserin 5 mg evening dose for 21 days vs placebo, P>0.1.
The mark [12] stands for this setting: flurazepam 30 mg single evening dose vs placebo, P=0.0001.

In the case of `Cc1ccc(-c2nc3ccc(C)cn3c2CC(=O)N(C)C)cc1` [zolpidem], in [1] (Part B, co-administration phase with single dose zolpidem-IR 10 mg), the Adverse events reported is reported as 1/24.

Regarding `CN(C)CCO/N=C(/C=C/c1ccc(O)cc1)c1ccccc1F` [eplivanserin, (1Z, 2 E)-1-(2-fluorophenyl)-3-(4-hydroxyphenyl)-prop-2-en-1-one-O-(2-dimethylaminoethyl)oxime], in data set [2] (eplivanserin 5 mg evening dose for 21 days vs placebo, P=0.0002), the “CFF point of subjective equality, mean difference estimate” value was −1.01 Hz. In addition, in data set [3], the “CRT total reaction time, mean difference estimate” value is -10.40 ms. The “Immediate word recall number of correct responses, mean difference estimate” value in data set [4] (setting [11]) is −1.04. Further, in [5] (setting [11]), the “Delayed word recall number of correct responses, mean difference estimate” value is recorded as −0.33. Besides, in data set [6] (setting [11]), the “Compensatory tracking task overall average response time, mean difference estimate” value is 13.03 ms and the “Compensatory tracking task overall average tracking errors, mean difference estimate” value is listed as −0.22 pixels. Besides, in [7] (setting [11]), the “Bond and Lader visual analogue scale alertness, mean difference estimate” value was 9.38. Also, the “Overall treatment effect on the 7 primary endpoints (global analysis)” value in data set [8] (eplivanserin 5 mg 21 days alone compared with placebo, P=0.0603) was “not associated with an overall treatment effect”. For the same compound, the “Headache, participants reporting” value in data set [1] (Part B, eplivanserin 5 mg 21 days, 6/24, placebo also 25%) is 25%. Besides, the “Dizziness, somnolence and asthenia, participants reporting” value in data set [1] (Part B, eplivanserin 5 mg 21 days, 7/24, placebo 4.2% (1/24)) is on record as 29.2%. Also, in [1] (eplivanserin 5 mg, alone and in combination with zolpidem), the Tolerability entry is “well tolerated”. The Steady-state levels entry in [9] is “Steady-state levels were reached”. Also, the Absorption in [10] is recorded as more than 70%. Besides, the “Binding to GABA receptors” value with GABA receptors is reported as “does not bind”.

Regarding `CCN(CC)CCN1C(=O)CN=C(c2ccccc2F)c2cc(Cl)ccc21` [flurazepam, reference compound], in [2] (flurazepam 30 mg single evening dose vs placebo, P=0.2005), the “CFF point of subjective equality, mean difference estimate” value is −0.52 Hz. Further, the “CRT total reaction time, mean difference estimate” value in data set [3] is listed as 47.46 ms. Moreover, the “Immediate word recall number of correct responses, mean difference estimate” value in [4] (setting [12]) was −3.08. Moreover, in data set [5] (setting [12]), the “Delayed word recall number of correct responses, mean difference estimate” value is recorded as −4.38. Further, the “Compensatory tracking task overall average response time, mean difference estimate” value in [6] (flurazepam 30 mg single evening dose vs placebo, P=0.0029) is given as 49.98 ms. The “Compensatory tracking task overall average tracking errors, mean difference estimate” value in data set [6] (flurazepam 30 mg single evening dose vs placebo, P=0.0221) is recorded as 1.64 pixels. In addition, the “Bond and Lader visual analogue scale alertness, mean difference estimate” value in data set [7] (flurazepam 30 mg single evening dose vs placebo, P=0.0031) is recorded as 62.38. Besides, the “Overall treatment effect on the 7 primary endpoints (global analysis)” value in data set [8] (flurazepam 30 mg single dose compared with placebo, P=0.0001) is recorded as “associated with an overall treatment effect”. Also, in data set [1] (Part A, flurazepam 30 mg single dose, healthy individuals), the Adverse events reported is reported as 2/24.
